Each molecule was assayed on test plant species (assay: Post-emergent herbicidal activity test (greenhouse, foliar spray, visual growth reduction)). Conditions: post-emergence, 336 h, ECHCG: barnyardgrass (Echinochloa crus-galli), 140 g ai/ha, 14 days after application, read-out: Visual Growth Reduction (%) 14 Days After Application, ECHCG.
Assay type: in vivo
Procedure, shortened: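 Greenhouse plants at first–second true leaf stage sprayed overhead at 187 L/ha with compound in acetone/water/isopropanol/DMSO/crop oil/X-77 carrier; controls received solvent blank. Injury rated visually after 14 d on a 0–100% scale versus untreated and control plants, converted to growth reduction.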
`COC(=O)c1nc(-c2ccc(C(F)F)c(F)c2OC)c(F)cc1Cl` [F253, methyl 3-chloro-6-(4-(difluoromethyl)-3-fluoro-2-methoxyphenyl)-5-fluoropicolinate] showed a pest or weed control at 140 g/ha of 60 to 74%.
In the case of `Cc1cc(-c2ccc(Cl)c(C(=O)O)n2)ccc1C(F)(F)F` [F316, 3-Chloro-6-(3-methyl-4-(trifluoromethyl)phenyl) picolinic acid], the pest or weed control at 140 g/ha is reported as 0 to 29%.

Same assay, conditions: post-emergence, 336 h, IPOHE: ivy-leaf morning glory (Ipomoea hederacea), 140 g ai/ha, 14 days after application, read-out: Visual Growth Reduction (%) 14 Days After Application, IPOHE
In the case of `COC(=O)c1nc(-c2ccc(C(F)F)c(F)c2OC)c(F)cc1Cl` [F253, methyl 3-chloro-6-(4-(difluoromethyl)-3-fluoro-2-methoxyphenyl)-5-fluoropicolinate], the pest or weed control at 140 g/ha is reported as 95 to 100%.
For `Cc1cc(-c2ccc(Cl)c(C(=O)O)n2)ccc1C(F)(F)F` [F316, 3-Chloro-6-(3-methyl-4-(trifluoromethyl)phenyl) picolinic acid], the pest or weed control at 140 g/ha was 60 to 74%.

Same assay, conditions: post-emergence, 336 h, KCHSC: kochia (Bassia scoparia), 140 g ai/ha, 14 days after application, read-out: Visual Growth Reduction (%) 14 Days After Application, KCHSC
Molecule `COC(=O)c1nc(-c2ccc(C(F)F)c(F)c2OC)c(F)cc1Cl` [F253, methyl 3-chloro-6-(4-(difluoromethyl)-3-fluoro-2-methoxyphenyl)-5-fluoropicolinate] has a pest or weed control at 140 g/ha of 95 to 100%.
`Cc1cc(-c2ccc(Cl)c(C(=O)O)n2)ccc1C(F)(F)F` [F316, 3-Chloro-6-(3-methyl-4-(trifluoromethyl)phenyl) picolinic acid] showed a pest or weed control at 140 g/ha of 0 to 29%.

Same assay, conditions: post-emergence, 336 h, ORYSA: rice (Oryza sativa), 140 g ai/ha, 14 days after application, read-out: Visual Growth Reduction (%) 14 Days After Application, ORYSA
Molecule `COC(=O)c1nc(-c2ccc(C(F)F)c(F)c2OC)c(F)cc1Cl` [F253, methyl 3-chloro-6-(4-(difluoromethyl)-3-fluoro-2-methoxyphenyl)-5-fluoropicolinate] has a pest or weed control at 140 g/ha of 0 to 29%.
With `Cc1cc(-c2ccc(Cl)c(C(=O)O)n2)ccc1C(F)(F)F` [F316, 3-Chloro-6-(3-methyl-4-(trifluoromethyl)phenyl) picolinic acid] the pest or weed control at 140 g/ha was 0 to 29%.

Same assay, conditions: post-emergence, 336 h, SETFA: giant foxtail (Setaria faberi), 140 g ai/ha, 14 days after application, read-out: Visual Growth Reduction (%) 14 Days After Application, SETFA
`COC(=O)c1nc(-c2ccc(C(F)F)c(F)c2OC)c(F)cc1Cl` [F253, methyl 3-chloro-6-(4-(difluoromethyl)-3-fluoro-2-methoxyphenyl)-5-fluoropicolinate] showed a pest or weed control at 140 g/ha of 0 to 29%.
`Cc1cc(-c2ccc(Cl)c(C(=O)O)n2)ccc1C(F)(F)F` [F316, 3-Chloro-6-(3-methyl-4-(trifluoromethyl)phenyl) picolinic acid] showed a pest or weed control at 140 g/ha of 0 to 29%.

Same assay, conditions: post-emergence, 336 h, SORVU: grain sorghum (Sorghum vulgare), 140 g ai/ha, 14 days after application, read-out: Visual Growth Reduction (%) 14 Days After Application, SORVU
Work on `COC(=O)c1nc(-c2ccc(C(F)F)c(F)c2OC)c(F)cc1Cl` [F253, methyl 3-chloro-6-(4-(difluoromethyl)-3-fluoro-2-methoxyphenyl)-5-fluoropicolinate] yielded a pest or weed control at 140 g/ha of 45 to 59%.
With `Cc1cc(-c2ccc(Cl)c(C(=O)O)n2)ccc1C(F)(F)F` [F316, 3-Chloro-6-(3-methyl-4-(trifluoromethyl)phenyl) picolinic acid] the pest or weed control at 140 g/ha was 0 to 29%.

Same assay, conditions: post-emergence, 336 h, STEME: common chickweed (Stellaria media), 140 g ai/ha, 14 days after application, read-out: Visual Growth Reduction (%) 14 Days After Application, STEME
In the case of `COC(=O)c1nc(-c2ccc(C(F)F)c(F)c2OC)c(F)cc1Cl` [F253, methyl 3-chloro-6-(4-(difluoromethyl)-3-fluoro-2-methoxyphenyl)-5-fluoropicolinate], the pest or weed control at 140 g/ha is reported as 0 to 29%.
`Cc1cc(-c2ccc(Cl)c(C(=O)O)n2)ccc1C(F)(F)F` [F316, 3-Chloro-6-(3-methyl-4-(trifluoromethyl)phenyl) picolinic acid] gave a pest or weed control at 140 g/ha of 0 to 29%.

Same assay, conditions: post-emergence, 336 h, TRZAS: wheat, spring (Triticum aestivum), 140 g ai/ha, 14 days after application, read-out: Visual Growth Reduction (%) 14 Days After Application, TRZAS
Molecule `COC(=O)c1nc(-c2ccc(C(F)F)c(F)c2OC)c(F)cc1Cl` [F253, methyl 3-chloro-6-(4-(difluoromethyl)-3-fluoro-2-methoxyphenyl)-5-fluoropicolinate] has a pest or weed control at 140 g/ha of 0 to 29%.
In the case of `Cc1cc(-c2ccc(Cl)c(C(=O)O)n2)ccc1C(F)(F)F` [F316, 3-Chloro-6-(3-methyl-4-(trifluoromethyl)phenyl) picolinic acid], the pest or weed control at 140 g/ha is reported as 0 to 29%.

Same assay, conditions: post-emergence, 336 h, blackgrass (Alopecurus myosuroides), 14 Days After Application, 140 g ai/ha, read-out: Visual Growth Reduction (%) ALOMY
In the case of `COC(=O)c1nc(-c2ccc(C(F)F)c(F)c2OC)c(F)cc1Cl` [F253, methyl 3-chloro-6-(4-(difluoromethyl)-3-fluoro-2-methoxyphenyl)-5-fluoropicolinate], the pest or weed control at 140 g/ha is reported as 0 to 29%.
Work on `Cc1cc(-c2ccc(Cl)c(C(=O)O)n2)ccc1C(F)(F)F` [F316, 3-Chloro-6-(3-methyl-4-(trifluoromethyl)phenyl) picolinic acid] yielded a pest or weed control at 140 g/ha of 0 to 29%.

Same assay, conditions: post-emergence, 336 h, canada thistle (Cirsium arvense), 14 Days After Application, 140 g ai/ha, read-out: Visual Growth Reduction (%) CIRAR
Work on `COC(=O)c1nc(-c2ccc(C(F)F)c(F)c2OC)c(F)cc1Cl` [F253, methyl 3-chloro-6-(4-(difluoromethyl)-3-fluoro-2-methoxyphenyl)-5-fluoropicolinate] yielded a pest or weed control at 140 g/ha of 95 to 100%.
`Cc1cc(-c2ccc(Cl)c(C(=O)O)n2)ccc1C(F)(F)F` [F316, 3-Chloro-6-(3-methyl-4-(trifluoromethyl)phenyl) picolinic acid] showed a pest or weed control at 140 g/ha of 30 to 44%.

Same assay, conditions: post-emergence, 336 h, crabgrass (Digitaria sanguinalis), 14 Days After Application, 140 g ai/ha, read-out: Visual Growth Reduction (%) DIGSA
Work on `COC(=O)c1nc(-c2ccc(C(F)F)c(F)c2OC)c(F)cc1Cl` [F253, methyl 3-chloro-6-(4-(difluoromethyl)-3-fluoro-2-methoxyphenyl)-5-fluoropicolinate] yielded a pest or weed control at 140 g/ha of 0 to 29%.
For `Cc1cc(-c2ccc(Cl)c(C(=O)O)n2)ccc1C(F)(F)F` [F316, 3-Chloro-6-(3-methyl-4-(trifluoromethyl)phenyl) picolinic acid], the pest or weed control at 140 g/ha was 0 to 29%.

Same assay, conditions: post-emergence, 336 h, lambsquarters (Chenopodium album), 14 Days After Application, 140 g ai/ha, read-out: Visual Growth Reduction (%) CHEAL
`COC(=O)c1nc(-c2ccc(C(F)F)c(F)c2OC)c(F)cc1Cl` [F253, methyl 3-chloro-6-(4-(difluoromethyl)-3-fluoro-2-methoxyphenyl)-5-fluoropicolinate] gave a pest or weed control at 140 g/ha of 95 to 100%.
In the case of `Cc1cc(-c2ccc(Cl)c(C(=O)O)n2)ccc1C(F)(F)F` [F316, 3-Chloro-6-(3-methyl-4-(trifluoromethyl)phenyl) picolinic acid], the pest or weed control at 140 g/ha is reported as 30 to 44%.

Same assay, conditions: post-emergence, 336 h, redroot pigweed (Amaranthus retroflexus), 14 Days After Application, 140 g ai/ha, read-out: Visual Growth Reduction (%) AMARE
Work on `COC(=O)c1nc(-c2ccc(C(F)F)c(F)c2OC)c(F)cc1Cl` [F253, methyl 3-chloro-6-(4-(difluoromethyl)-3-fluoro-2-methoxyphenyl)-5-fluoropicolinate] yielded a pest or weed control at 140 g/ha of 95 to 100%.
In the case of `Cc1cc(-c2ccc(Cl)c(C(=O)O)n2)ccc1C(F)(F)F` [F316, 3-Chloro-6-(3-methyl-4-(trifluoromethyl)phenyl) picolinic acid], the pest or weed control at 140 g/ha is reported as 0 to 29%.

Same assay, conditions: post-emergence, 336 h, wild oat (Avena fatua), 14 Days After Application, 140 g ai/ha, read-out: Visual Growth Reduction (%) AVEFA
`COC(=O)c1nc(-c2ccc(C(F)F)c(F)c2OC)c(F)cc1Cl` [F253, methyl 3-chloro-6-(4-(difluoromethyl)-3-fluoro-2-methoxyphenyl)-5-fluoropicolinate] was tested, and the pest or weed control at 140 g/ha was 0 to 29%.
`Cc1cc(-c2ccc(Cl)c(C(=O)O)n2)ccc1C(F)(F)F` [F316, 3-Chloro-6-(3-methyl-4-(trifluoromethyl)phenyl) picolinic acid] showed a pest or weed control at 140 g/ha of 0 to 29%.

Same assay, conditions: post-emergence, 336 h, yellow nutsedge (Cyperus esculentus), 14 Days After Application, 140 g ai/ha, read-out: Visual Growth Reduction (%) CYPES
Molecule `COC(=O)c1nc(-c2ccc(C(F)F)c(F)c2OC)c(F)cc1Cl` [F253, methyl 3-chloro-6-(4-(difluoromethyl)-3-fluoro-2-methoxyphenyl)-5-fluoropicolinate] has a pest or weed control at 140 g/ha of 0 to 29%.
In the case of `Cc1cc(-c2ccc(Cl)c(C(=O)O)n2)ccc1C(F)(F)F` [F316, 3-Chloro-6-(3-methyl-4-(trifluoromethyl)phenyl) picolinic acid], the pest or weed control at 140 g/ha is reported as 0 to 29%.
